Assay results published in ChEMBL document CHEMBL1142486, “Anti-inflammatory activities of furanoditerpenoids and other constituents from Fibraurea tinctoria” (2008).

Tests used:
[1] = system: RAW264.7; test: Inhibition of LPS-induced nitric oxide production in mouse RAW264.7 cells assessed as nitrite levels in supernatant after 24 hrs by griess assay; assay type: functional, cell-based
[2] = system: Mus musculus; test: Antiinflammatory activity against carrageenan-induced paw edema in ICR mouse at 50 mg/kg, ip administered 30 mins before carrageenan challenge assessed after 4 hrs; assay type: functional; settings: route intraperitoneal
[3] = system: Mus musculus; test: Antiinflammatory activity against carrageenan-induced paw edema in ICR mouse at 100 mg/kg, ip administered 30 mins before carrageenan challenge assessed after 1 hr; assay type: functional; settings: route intraperitoneal
[4] = system: Mus musculus; test: Antiinflammatory activity against carrageenan-induced paw edema in ICR mouse at 100 mg/kg, ip administered 30 mins before carrageenan challenge assessed after 0.5 hrs; assay type: functional; settings: route intraperitoneal
[5] = system: Mus musculus; test: Antiinflammatory activity against carrageenan-induced paw edema in ICR mouse at 100 mg/kg, ip administered 30 mins before carrageenan challenge assessed after 5 hrs; assay type: functional; settings: route intraperitoneal
[6] = system: Mus musculus; test: Antiinflammatory activity against carrageenan-induced paw edema in ICR mouse at 50 mg/kg, ip administered 30 mins before carrageenan challenge assessed after 2 hrs; assay type: functional; settings: route intraperitoneal
[7] = system: Mus musculus; test: Antiinflammatory activity against carrageenan-induced paw edema in ICR mouse at 50 mg/kg, ip administered 30 mins before carrageenan challenge assessed after 5 hrs; assay type: functional; settings: route intraperitoneal
[8] = system: Mus musculus; test: Antiinflammatory activity against carrageenan-induced paw edema in ICR mouse at 100 mg/kg, ip administered 30 mins before carrageenan challenge assessed after 3 hrs; assay type: functional; settings: route intraperitoneal
[9] = system: Mus musculus; test: Antiinflammatory activity against carrageenan-induced paw edema in ICR mouse at 100 mg/kg, ip administered 30 mins before carrageenan challenge assessed after 2 hrs; assay type: functional; settings: route intraperitoneal
[10] = system: Mus musculus; test: Antiinflammatory activity against carrageenan-induced paw edema in ICR mouse at 100 mg/kg, ip administered 30 mins before carrageenan challenge assessed after 4 hrs; assay type: functional; settings: route intraperitoneal
[11] = system: Mus musculus; test: Antiinflammatory activity against carrageenan-induced paw edema in ICR mouse at 50 mg/kg, ip administered 30 mins before carrageenan challenge assessed after 1 hr; assay type: functional; settings: route intraperitoneal
[12] = system: Mus musculus; test: Antiinflammatory activity against carrageenan-induced paw edema in ICR mouse at 50 mg/kg, ip administered 30 mins before carrageenan challenge assessed after 3 hrs; assay type: functional; settings: route intraperitoneal
[13] = system: Mus musculus; test: Antiinflammatory activity against carrageenan-induced paw edema in ICR mouse at 50 mg/kg, ip administered 30 mins before carrageenan challenge assessed after 0.5 hrs; assay type: functional; settings: route intraperitoneal
[14] = system: Mus musculus; test: Antiinflammatory activity against carrageenan-induced paw edema in ICR mouse at 4 mg/kg, ip administered 30 mins before carrageenan challenge assessed after 3 hrs; assay type: functional; settings: route intraperitoneal
[15] = system: Mus musculus; test: Antiinflammatory activity against carrageenan-induced paw edema in ICR mouse at 4 mg/kg, ip administered 30 mins before carrageenan challenge assessed after 5 hrs; assay type: functional; settings: route intraperitoneal
[16] = system: Mus musculus; test: Antiinflammatory activity against carrageenan-induced paw edema in ICR mouse at 4 mg/kg, ip administered 30 mins before carrageenan challenge assessed after 2 hrs; assay type: functional; settings: route intraperitoneal
[17] = system: Mus musculus; test: Antiinflammatory activity against carrageenan-induced paw edema in ICR mouse at 4 mg/kg, ip administered 30 mins before carrageenan challenge assessed after 0.5 hrs; assay type: functional; settings: route intraperitoneal
[18] = system: Mus musculus; test: Antiinflammatory activity against carrageenan-induced paw edema in ICR mouse at 4 mg/kg, ip administered 30 mins before carrageenan challenge assessed after 4 hrs; assay type: functional; settings: route intraperitoneal
[19] = system: Mus musculus; test: Antiinflammatory activity against carrageenan-induced paw edema in ICR mouse at 4 mg/kg, ip administered 30 mins before carrageenan challenge assessed after 1 hr; assay type: functional; settings: route intraperitoneal

| Structure (SMILES) | Activity [1] | Activity [2] [%] | Activity [3] [%] | Activity [4] [%] | Activity [5] [%] | Activity [6] [%] | Activity [7] [%] | Activity [8] [%] | Activity [9] [%] | Activity [10] [%] | Activity [11] [%] | Activity [12] [%] | Activity [13] [%] | Activity [14] [%] | Activity [15] [%] | Activity [16] [%] | Activity [17] [%] | Activity [18] [%] | Activity [19] [%] |
| --- | --- | --- | --- | --- | --- | --- | --- | --- | --- | --- | --- | --- | --- | --- | --- | --- | --- | --- | --- |
| C[C@@]12C[C@H](c3ccoc3)OC(=O)[C@@H]1CC[C@@]1(CO[C@@H]3O[C@H](CO)[C@@H](O)[C@H](O)[C@H]3O)C(=O)C=CC[C@H]12 | Dose-dependent effect | – | – | – | – | – | – | – | – | – | – | – | – | – | – | – | – | – | – |
| C[C@@]12C[C@H](c3ccoc3)OC(=O)[C@@H]1[C@@H](O)C[C@]1(C)[C@H]2[C@@H]2OC(=O)[C@@]1(O)[C@H]1O[C@@H]21 | Dose-dependent effect | – | – | – | – | – | – | – | – | – | – | – | – | – | – | – | – | – | – |
| C[C@@]12[C@H]3CC=C[C@@]1(O[C@@H]1O[C@H](CO)[C@@H](O)[C@H](O)[C@H]1O)C(=O)O[C@@H]2C[C@]1(O)C(=O)O[C@H](c2ccoc2)C[C@@]31C | Dose-dependent effect | – | – | – | – | – | – | – | – | – | – | – | – | – | – | – | – | – | – |
| C[C@@]12C[C@H](c3ccoc3)OC(=O)[C@@H]1CC[C@]1(C)[C@H]2[C@@H]2OC(=O)[C@@]1(O)[C@H]1O[C@@H]21 [CHASMANTHIN] | – | 31.6 | 18.75 | 13.15 | 20.71 | 22.41 | 32.49 | 21.23 | 21.76 | 23.73 | 18.46 | 23.99 | 15.39 | – | – | – | – | – | – |
| C[C@@]12CC=C3C(=O)O[C@@H](c4ccoc4)C[C@@]3(C)[C@@H]1CC=CC2=O [FIBARURETIN D] | – | 20.67 | 20.91 | 17 | 23.41 | 25.18 | 20.5 | 21.47 | 22.79 | 23.67 | 24.17 | 21.55 | 19.44 | – | – | – | – | – | – |
| C[C@@]12C[C@H](c3ccoc3)OC(=O)C1=CC[C@]1(C)[C@H]2[C@H]2C=C[C@]1(O[C@@H]1O[C@H](CO)[C@@H](O)[C@H](O)[C@H]1O)C(=O)O2 [FIBLEUCINOSIDE] | – | 24.01 | 19.05 | 14.91 | 20.11 | 24.26 | 23.88 | 21.31 | 19.82 | 22.01 | 18.8 | 22.82 | 15.64 | – | – | – | – | – | – |
| C[C@@]12C[C@H](c3ccoc3)OC(=O)C1=CC[C@]1(C)[C@H]2[C@H]2C=C[C@]1(O)C(=O)O2 [FIBLEUCIN] | – | 25.29 | 17.79 | 14.56 | 26.02 | 17.97 | 25.6 | 24.44 | 20.68 | 26.19 | 13.12 | 21.61 | 11.8 | – | – | – | – | – | – |
| C[C@@]12C[C@@H](c3ccoc3)OC(=O)[C@H]1CC[C@@H]1[C@H]2C[C@@H]2OC(=O)[C@@]1(O)[C@@H]2O [FIBRAURETIN B] | – | 26.73 | 19.17 | 11.45 | 18.16 | 24.03 | 28.34 | 15.21 | 16.73 | 17.69 | 20.1 | 23.43 | 14 | – | – | – | – | – | – |
| C[C@@]12C[C@H](c3ccoc3)OC(=O)C1=CC[C@]1(C)[C@H]2[C@@H]2OC(=O)[C@@]1(O[C@@H]1O[C@H](CO)[C@@H](O)[C@H](O)[C@H]1O)[C@H]1O[C@@H]21 [FIBRAURINOSIDE] | Dose-dependent effect | 20.89 | 23.03 | 18.67 | 24.8 | 18.99 | 18.48 | 25.03 | 25.07 | 25.25 | 18.18 | 20.36 | 17.12 | – | – | – | – | – | – |
| C[C@@]12C[C@H](c3ccoc3)OC(=O)C1=CC[C@]1(C)[C@H]2[C@@H]2OC(=O)[C@@]1(O)[C@H]1O[C@@H]21 [FIBRAURIN] | Dose-dependent effect | 32.19 | 12.44 | 10.1 | 10.61 | 28.66 | 33.57 | 10.85 | 14 | 11.41 | 27.17 | 30.5 | 19.68 | – | – | – | – | – | – |
| COC(=O)C1=CCC[C@H]2[C@]3(C)C[C@@H](c4ccoc4)OC(=O)[C@H]3CC[C@@]12C [FLORIBUNDIC ESTER] | – | 21.85 | 15.46 | 13.07 | 13.07 | 21.51 | 20.18 | 13.95 | 16.78 | 14.9 | 20.95 | 21.84 | 16.27 | – | – | – | – | – | – |
| COc1ccc2c(c1)c(CC(=O)O)c(C)n2C(=O)c1ccc(Cl)cc1 [INDOMETHACIN] | – | – | – | – | – | – | – | – | – | – | – | – | – | 18.52 | 16.3 | 19.53 | 20.77 | 17.04 | 21.48 |
